According to US20240358015A1, “HERBICIDAL COMPOSITIONS” (Agrematch Ltd., priority 2021, published 2024):

How the values were obtained:
A. theophrasti = assay: Growth-chamber post-emergence assay on various weed species (Example 7); assay type: in vivo, Abutilon theophrasti; conditions: 1500 g/ha; 0.8% MIPA, 0.25% Genapol, 2% HASTEN, 0.05% Break-Thru
Protocol: (§1) Herbicidal activity of Compound 1 was determined by post-emergence application on various weed species. 8-14 day old plants (weeds) were grown at 16 hours/8 hours day/night cycles at 30° C./25° C., respectively. Leaf stage was typically 2-6.
(§2) In each treatment, 3 pots (either 7×7 or 8×12 cm), containing about 3-6 plants each, were sprayed using a VL-SET Paasche Airbrush with a 1-1.5 ml-solution containing 0.5-1.5 mg/ml of the tested compound, which is equivalent to about 500-1500 g/ha.
(§3) Damage assessment: Herbicidal activity was assessed and scored 3-4 days after application by visual inspection of the plants in comparison to plants treated with the formulation alone (with no active ingredient) as control. Activity score is in the range of 0 to 100, where 0 represents no herbicidal activity like control plants and 100 represents the maximal herbicidal activity (i.e., total death of the plant).

S. viridis = assay: as above; assay type: in vivo, Setaria viridis; conditions: 0.05% Break-Thru
Protocol: as §1, §2, §3

E. colonum = assay: as above; assay type: in vivo, Echinochloa colonum; conditions: 1500 g/ha; 0.8% MIPA, 0.25% Genapol, 2% HASTEN, 0.05% Break-Thru
Protocol: as §1, §2, §3

Lolium multiflorum = assay: Growth-chamber post-emergence assay on additional weeds (Example 2); assay type: in vivo; conditions: 1000 g/ha; 13-day old plants; 3 days after application; scale 0-100
Protocol: (§4) Herbicidal activity of Compound 1 was determined by post-emergence application on 13-day old Echinochloa colonum, Lolium multiflorum and Solanum nigrum.
(§5) In each treatment, 3 pots, each containing about 5 plants, were sprayed using the same conditions as described above which are equivalent to 1000 g/ha. Herbicidal activity was assessed and scored 3 days after application by visual inspection of the weeds. Activity score is in the range of 0 to 100, where 0 represents no herbicidal activity like control plants and 100 represents the maximal herbicidal activity (i.e., total death of the plant). The obtained data is presented in Table 6 below per the activity score as described herein.

Echinochloa colonum = assay: as above; assay type: in vivo; conditions: 1000 g/ha; 13-day old plants; 3 days after application; scale 0-100
Protocol: as §4, §5

Solanum nigrum = assay: as above; assay type: in vivo; conditions: 1000 g/ha; 13-day old plants; 3 days after application; scale 0-100
Protocol: as §4, §5

[1] = test system: Resistant A. rudis (target-site resistant to HRAC class 5); assay: Growth-chamber assay with resistant weeds (Example 9); assay type: in vivo, Amaranthus rudis; conditions: 2,000 g/ha, 4-5 days after application, scale 0-100
Protocol: (§6) Herbicidal activity of Compound 1 was determined by post-emergence application in both Growth-chamber and Net-house conditions. Growing conditions were as described in Examples 6 and 8 above.
(§7) The assay was performed on 9-11 day old plants (weeds) of Amaranthus rudis that were either target-site resistant or sensitive to HRAC class 5. In each treatment, between 1 to 3 pots (8×12 cm), containing about 6 Amaranthus Rudis plants, were sprayed using a VL-SET Paasche Airbrush with a 1 ml-solution.
(§8) Damage assessment: Herbicidal activity was assessed and scored 4-5 days after application by visual inspection of the plants in comparison to plants treated with the formulation alone (with no active ingredient) as control. Activity score is in the range of 0 to 100, where 0 represents no herbicidal activity like control plants and 100 represents the maximal herbicidal activity (i.e., total death of the plant).

Sensitive A. rudis = assay: as above; assay type: in vivo, Amaranthus rudis; conditions: 2,000 g/ha, 4-5 days after application, scale 0-100
Protocol: as §6, §7, §8

Amaranthus palmeri = assay: Growth-chamber post-emergence assay, low application rates (Example 5); assay type: in vivo
Protocol: (§9) Herbicidal activity of Compound 1 was determined by post-emergence application on 8-day old plants (weeds) of the Amaranthus palmeri and Setaria viridis species that were grown at 16 hours/8 hours day/night cycles at 30° C./25° C., respectively. Leaf stage was typically 4-6 for A. palmeri and 3-4 for S. viridis.
(§10) In each treatment, between 1 to 3 pots (8×12 cm), containing about 6 Amaranthus palmeri or Setaria viridis plants, were sprayed using a VL-SET Paasche Airbrush with a 1 ml-solution containing 0.1-0.375 mg/ml of the tested compound, which is equivalent to about 100-375 g/ha.
as §3

Setaria viridis = assay: as above; assay type: in vivo
Protocol: as §9, §10, §3

[2] = 125 g/ha, 0.8% MIPA, 0.25% Genapol, 2% DASH EC
[3] = 125 g/ha, 0.8% MIPA, 2% DASH EC
[4] = 150 g/ha, 0.8% MIPA, 0.25% Genapol, 1% AGNIQUE, 0.05% Ca-LAS, 0.02% BSU
[5] = 150 g/ha, 0.8% MIPA, 0.25% Genapol, 2% HASTEN
[6] = 200 g/ha, 0.21% MIPA, 0.25% Genapol, 1% AGNIQUE, 0.05% Ca-LAS, 0.02% BSU
[7] = 200 g/ha, 0.8% MIPA, 0.25% Genapol, 1% AGNIQUE, 0.05% Ca-LAS, 0.02% BSU
[8] = 375 g/ha, 0.8% MIPA, 0.25% Genapol, 1% AGNIQUE, 0.05% Ca-LAS, 0.02% BSU
[9] = 375 g/ha, 0.8% MIPA, 2% TWEEN20, 1% AGNIQUE, 0.05% Ca-LAS, 0.02% BSU, 0.05% Break-Thru, 3-4 days after application, scale 0-100

With `O=C(O)c1cc(O)c2c(c1)C(=O)c1cccc(O)c1C2=O` [Compound 1, Rhein] the Herbicidal activity score (A. theophrasti) was 40, the Herbicidal activity score (S. viridis; 500 g/ha, 0.8% MIPA, 0.25% Genapol, 1% AGNIQUE, 0.05% Ca-LAS, 0.02% BSU) was 70 and the Herbicidal activity score (S. viridis; 750 g/ha, 0.2% MIPA, 2% TWEEN20, 1% AGNIQUE, 0.05% Ca-LAS, 0.02% BSU) was 70. It also gave a Herbicidal activity score (S. viridis; 1500 g/ha, 0.8% MIPA, 0.25% Genapol, 2% HASTEN) of 100, a Herbicidal activity score (E. colonum) of 90 and an Activity Score (Lolium multiflorum) of 50. It also gave an Activity Score (Echinochloa colonum) of 70, an Activity Score (Solanum nigrum) of 60 and a Herbicidal activity score [1] of 100. For the same compound, the Herbicidal activity score (Sensitive A. rudis) was 100, the Herbicidal activity score (Amaranthus palmeri; 100 g/ha, 0.8% MIPA, 0.25% Genapol, 2% DASH EC) was 90 and the Herbicidal activity score (Amaranthus palmeri; [2]) was 93. The Herbicidal activity score (Amaranthus palmeri; [3]) was 65, the Herbicidal activity score (Amaranthus palmeri; [4]) was 85 and the Herbicidal activity score (Amaranthus palmeri; [5]) was 85. For the same compound, the Herbicidal activity score (Amaranthus palmeri; [6]) was 93, the Herbicidal activity score (Amaranthus palmeri; [7]) was 98 and the Herbicidal activity score (Amaranthus palmeri; 250 g/ha, 0.02% MIPA, 2% TWEEN20, 2% AGNIQUE, 0.1% Ca-LAS, 0.04% BSU, 0.05% Break-Thru) was 90. The Herbicidal activity score (Amaranthus palmeri; [8]) was 97, the Herbicidal activity score (Amaranthus palmeri; [9]) was 100 and the Herbicidal activity score (Setaria viridis; [2]) was 23. The Herbicidal activity score (Setaria viridis; [3]) was 43, the Herbicidal activity score (Setaria viridis; [4]) was 70 and the Herbicidal activity score (Setaria viridis; [5]) was 65. For the same compound, the Herbicidal activity score (Setaria viridis; [6]) was 65, the Herbicidal activity score (Setaria viridis; [7]) was 88 and the Herbicidal activity score (Setaria viridis; [8]) was 78. The Herbicidal activity score (Setaria viridis; [9]) was 75.
